In one assay the target is Factor XIa (Homo sapiens (Human), UniProt P03951). Kind of assay: Factor XIa inhibition assay (FLINT) utilizing a fluorophore-quencher pair peptide substrate. The settings on record: 30 min preincubation, kinetic reads over 30 min, read-out: FXIa Kin Inh IC50. In kind it is biochemical. Summed up:
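FXIa ([…]) preincubated 30 min with compound (11-point 3-fold dilution, top 100 nM, 2% DMSO), then 15 μM quenched FXI Arg146-based peptide added; Tris pH 7.5, CaCl2, BSA, CHAPS. Fluorescence 485/520 nm read kinetically every 5 min over 30 min at RT; IC50 by 4-parameter fit.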

The next assay has as its target human plasma kallikrein (Homo sapiens (Human), UniProt P03952). Put plainly: Kallikrein inhibition assay (FLINT) utilizing a quenched AMC peptide substrate. As to conditions: 30 min preincubation, kinetic reads over 30 min, Z-Gly-Pro-Arg-AMC substrate 50 μM; read-out: Kallikrein Kin Inh IC50. In kind it is biochemical. Summed up: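 Enzyme (2 nM final) pre-incubated 30 min at room temperature with compound (11-point, 3-fold, top 1 μM, 2% DMSO), then 50 μM Z-Gly-Pro-Arg-AMC added in Tris pH 7.5 buffer. Kinetic fluorescence 340/440 nm every 5 min over 30 min; IC50 from 4-parameter logistic fit.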

Where [1] appears, read: 5Fam-KLTRAETV-K5Tamra substrate 15 μM.

Read-outs that look alike come from different tables or passages of the source.

Sequence of human plasma kallikrein (P03952 391-638): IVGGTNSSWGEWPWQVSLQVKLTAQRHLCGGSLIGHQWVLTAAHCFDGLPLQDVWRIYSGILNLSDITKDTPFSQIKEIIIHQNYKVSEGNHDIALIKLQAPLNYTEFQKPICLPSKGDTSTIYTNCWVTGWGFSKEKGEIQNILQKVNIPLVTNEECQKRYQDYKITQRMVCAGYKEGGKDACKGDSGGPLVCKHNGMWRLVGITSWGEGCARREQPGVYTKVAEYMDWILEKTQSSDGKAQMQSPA
Sequence of human plasma kallikrein (P03952 20-390 partner): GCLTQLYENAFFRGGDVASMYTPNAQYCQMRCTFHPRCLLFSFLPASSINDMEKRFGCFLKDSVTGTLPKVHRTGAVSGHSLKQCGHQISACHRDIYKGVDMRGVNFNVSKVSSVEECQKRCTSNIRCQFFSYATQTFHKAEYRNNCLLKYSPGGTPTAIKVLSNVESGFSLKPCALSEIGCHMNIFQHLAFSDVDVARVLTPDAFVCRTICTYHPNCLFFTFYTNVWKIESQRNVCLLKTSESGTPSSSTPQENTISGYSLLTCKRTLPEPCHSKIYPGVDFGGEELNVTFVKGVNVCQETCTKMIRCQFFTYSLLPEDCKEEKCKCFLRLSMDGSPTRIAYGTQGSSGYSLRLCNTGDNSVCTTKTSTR
Sequence of Factor XIa (P03951 388-625): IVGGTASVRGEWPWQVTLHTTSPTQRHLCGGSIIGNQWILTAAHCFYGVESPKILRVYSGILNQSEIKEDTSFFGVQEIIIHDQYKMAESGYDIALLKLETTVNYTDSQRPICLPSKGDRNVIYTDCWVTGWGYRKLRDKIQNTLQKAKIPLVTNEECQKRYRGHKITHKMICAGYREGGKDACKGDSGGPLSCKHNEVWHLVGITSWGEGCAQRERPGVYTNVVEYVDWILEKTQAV
Sequence of Factor XIa (P03951 19-387 partner): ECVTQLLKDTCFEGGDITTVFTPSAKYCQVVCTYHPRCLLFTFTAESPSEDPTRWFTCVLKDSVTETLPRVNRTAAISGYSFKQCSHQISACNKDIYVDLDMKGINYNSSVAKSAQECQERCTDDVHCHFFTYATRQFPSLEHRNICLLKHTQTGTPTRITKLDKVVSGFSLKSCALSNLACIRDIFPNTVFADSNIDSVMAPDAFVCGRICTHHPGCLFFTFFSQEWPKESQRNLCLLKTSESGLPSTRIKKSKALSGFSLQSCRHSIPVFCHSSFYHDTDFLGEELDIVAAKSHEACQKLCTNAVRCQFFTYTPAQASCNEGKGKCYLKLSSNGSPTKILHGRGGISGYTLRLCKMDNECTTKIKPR

For orientation: IC50 means the concentration needed to halve the response being measured. As to `O=C1C=C(c2c(-n3cnnn3)ccc(Cl)c2F)C[C@H]2CC[C@@H](c3nc(-c4ccnc5[nH]ccc45)c[nH]3)N12` [Example 32, (3S,8aR)-3-(4-(1H-pyrrolo[2,3-b]pyridin-4-yl)-1H-imidazol-2-yl)-7-(3-chloro-2-fluoro-6-(1H-tetrazol-1-yl)phenyl)-2,3,8,8a-tetrahydroindolizin-5(1H)-one], the IC50 on Factor XIa (setting [1]) was 1.5 nM; on human plasma kallikrein it was 2.9 nM.
`[2H]C1([2H])C[C@@H](c2ncc(-c3ccnc(CO)c3F)[nH]2)N2C(=O)C=C(c3c(-n4cnnn4)ccc(Cl)c3F)C([2H])([2H])[C@]21[2H]` [Example 33, (3S,8aR)-7-(3-Chloro-2-fluoro-6-(1H-tetrazol-1-yl)phenyl)-3-(5-(3-fluoro-2-(hydroxymethyl)pyridin-4-yl)-1H-imidazol-2-yl)-2,3,8,8a-tetrahydroindolizin-5(1H)-one-1,1,8,8,8a-d5]: the figures for the IC50 on Factor XIa (5Fam-[…]-K5Tamra substrate 15 μM) and at human plasma kallikrein were 3.9 nM and 33.2 nM, respectively.
Regarding `O=C(O)c1nccc(-c2[nH]c([C@@H]3CC[C@@H]4CC(c5c(-n6cc(C(F)(F)F)nn6)ccc(Cl)c5F)=CC(=O)N43)nc2F)c1F` [Example 34, 4-(2-((3S,8aR)-7-(3-Chloro-2-fluoro-6-(4-(trifluoromethyl)-1H-1,2,3-triazol-1-yl)phenyl)-5-oxo-1,2,3,5,8,8a-hexahydroindolizin-3-yl)-4-fluoro-1H-imidazol-5-yl)-3-fluoropicolinic acid], the IC50 on Factor XIa (setting [1]) came out at 0.6 nM; at human plasma kallikrein, 32.8 nM.
The corresponding values for `O=C1C=C(c2c(-n3cnnn3)ccc(Cl)c2F)C[C@H]2CC[C@@H](c3nc(-c4ccnc5[nH]ncc45)c[nH]3)N12` [Example 38, (3S,8aR)-3-(4-(1H-pyrazolo[3,4-b]pyridin-4-yl)-1H-imidazol-2-yl)-7-(3-chloro-2-fluoro-6-(1H-tetrazol-1-yl)phenyl)-2,3,8,8a-tetrahydroindolizin-5(1H)-one] are 2.1 nM and 2.6 nM.
For `O=C1C=C(c2c(-n3cnnn3)ccc(Cl)c2F)C[C@H]2CC[C@@H](c3nc(-c4ncc(CO)s4)c[nH]3)N12` [Example 39, (3S,8aR)-7-(3-Chloro-2-fluoro-6-(1H-tetrazol-1-yl)phenyl)-3-(4-(5-(hydroxymethyl)thiazol-2-yl)-1H-imidazol-2-yl)-2,3,8,8a-tetrahydroindolizin-5(1H)-one], in that order: 95.6 nM and 136 nM.
For `COC(=O)Nc1nccc(-c2[nH]c([C@@H]3CC[C@@H]4CC(c5c(-n6cnnn6)ccc(Cl)c5F)=CC(=O)N43)nc2F)c1F` [Example 40, Methyl N-[4-[2-[(3S,8aR)-7-[3-chloro-2-fluoro-6-(tetrazol-1-yl)phenyl]-5-oxo-2,3,8,8a-tetrahydro-1H-indolizin-3-yl]-4-fluoro-1H-imidazol-5-yl]-3-fluoro-2-pyridyl]carbamate], in that order: 0.8 nM and 6.4 nM.
For the molecule `O=C1C=C(c2c(-n3cnnn3)ccc(Cl)c2F)C[C@H]2CC[C@@H](c3nc(-c4cnc5[nH]ncc5c4)c[nH]3)N12` [Example 41, (3S,8aR)-3-(4-(1H-pyrazolo[3,4-b]pyridin-5-yl)-1H-imidazol-2-yl)-7-(3-chloro-2-fluoro-6-(1H-tetrazol-1-yl)phenyl)-2,3,8,8a-tetrahydroindolizin-5(1H)-one], the IC50 at Factor XIa (setting [1]) came out at 44.7 nM; at human plasma kallikrein it was 54.2 nM.
The corresponding values for `O=C1C=C(c2c(-n3cnnn3)ccc(Cl)c2F)C[C@H]2CC[C@@H](c3nc(-c4ccc5[nH]cnc5c4)c[nH]3)N12` [Example 42, (3S,8aR)-3-(4 (1H-benzo[d]imidazol-5-yl)-1H-imidazol-2-yl)-7-(3-chloro-2-fluoro-6-(1H-tetrazol-1-yl)phenyl)-2,3,8,8a-tetrahydroindolizin-5(1H)-one] are 1 nM and 4.6 nM.

These data come from US20230295157A1, “3-(1H-IMIDAZOL-2-YL)-2,3,8,8A-TETRAHYDROINDOLIZIN-5(1H)-ONE DERIVATIVES USEFUL AS FACTOR XIA INHIBITORS” (JANSSEN PHARMACEUTICA NV, priority 2020, published 2023).
